Tests used:
[1] = test system: beet armyworm (Spodoptera exiqua); experiment: Activity against beet armyworm; format: in vivo; conditions: Spodoptera, 144 h, 6 days, read-out: BAW activity (rated on live and dead larvae and size of live larvae)
Description: (§1) The compounds identified in Table I were tested for miticidal and insecticidal activity against eight species. The following abbreviations are used in the Table III:
BAW refers to beet armyworm
(§2) In conducting evaluations of insecticidal activity, each test compound was formulated as a 400 ppm solution, and this solution was then diluted with water to give lesser concentrations. The 400 ppm solution was prepared by combining 19.2 mL of 0.05% solution of Tween 20 (polyoxyethylene (20) sorbitan monolaurate) in water with a solution of 8 mg of the compound in 0.8 mL of acetone/EtOH (9/1).
Activity against beet armyworm (Spodoptera exiqua) was evaluated as follows. The test is run using concentrations of 400 ppm and 50 ppm. A general purpose lepidoptera artificial diet was diluted to half strength with a 5% non nutritive agar. 8 mL of this diet material was dispensed into one ounce diet cups. One hour prior to treatment, 35 to 40 eggs were dispensed onto the diet surface. The cups were then sprayed with formulated material through a flat-fan nozzle. Treated cups were air dried prior to sealing with plastic caps. The cups were held for 6 days at room temperature. Activity was then rated based on the total number of live and dead larvae, and on the size of live larvae.

[2] = test system: German cockroach (Blattella germanicus); experiment: whole plant or invertebrate; format: in vivo; conditions: 240 h, ten days, read-out: GECR activity (rated on live and dead insects)
Description: as §1
GECR refers to German cockroach
as §2
Activity against German cockroach (Blattella germanicus) was evaluated as follows. 8 mL of alfalfa based green insect diet material was dispensed into a one ounce diet cup. The cups were then sprayed with formulated material through a flat-fan nozzle. The test was run using concentrations of 400 ppm and 50 ppm. Treated cups were air dried for 24 hours and infested with five late third or early fourth instar German cockroaches. The cups were capped and held for ten days in an environmental growth chamber at a temperature of […]. Activity was then rated based on the total number of live and dead insects.

[3] = test system: Erysiphe graminis tritici (powdery mildew); experiment: Foliar spray fungicide test, Erysiphe graminis tritici (powdery mildew) on wheat; conditions: Blumeria graminis, in Triticum aestivum, foliar, read-out: ERYSGT disease control, host wheat, 400 ppm (+++: 100 ppm)
[4] = test system: Plasmopara viticola (downy mildew); experiment: Foliar spray fungicide test, Plasmopara viticola (downy mildew) on grape; conditions: Plasmopara viticola, foliar, read-out: PLASVI disease control
[5] = test system: Puccinia recondita tritici (leaf rust); experiment: Foliar spray fungicide test, Puccinia recondita tritici (leaf rust) on wheat; conditions: Puccinia recondita, in Triticum aestivum, foliar, read-out: PUCCRT disease control, host wheat, 400 ppm (+++: 100 ppm)
Description: The test compounds were formulated for application by dissolving 50 mg of the compound into 1.25 ml of solvent. The solvent was prepared by mixing 50 ml of "Tween 20" (polyoxyethylene (20) sorbitan monolaurate emulsifier) with 475 ml of acetone and 475 ml of ethanol. The solvent/compound solution was diluted to 125 ml with deionized water. The resulting formulation contains 400 ppm test chemical. Lower concentrations were obtained by serial dilution with the solvent-surfactant mixture.
The formulated test compounds were applied by foliar spray. The following plant pathogens and their corresponding plants were employed.
Puccinia recondita PUCCRT wheat
The formulated technical compounds were sprayed on all foliar surfaces of the host plants to past run-off. Single pots of each host plant were placed on raised, revolving pedestals in a fume hood. Test solutions were sprayed on all foliar surfaces. All treatments were allowed to dry and the plants were inoculated with the appropriate pathogens within 24 hours.
The effectiveness of test compounds in controlling disease was rated using the following scale.

[6] = test system: two spotted spider mite (Tetranychus urticae); experiment: whole plant or invertebrate; conditions: 72 h; for mortality at 50 ppm: read-out: TSSM activity (percent based on mites present in plants sprayed with solvent alone), 50 ppm, squash plants, three days after treatment; for mortality at 400 ppm: read-out: TSSM activity (percent based on mites present in plants sprayed with solvent alone), 400 ppm, squash plants, three days after treatment
[7] = test system: tobacco budworm (Heliothis virescens); experiment: Activity against tobacco budworm; format: in vivo; conditions: Heliothis virescens, 144 h, 6 days, read-out: TBW activity (rated on live and dead larvae and size of live larvae)
Description: as §1
TBW refers to tobacco budworm
as §2
Activity against tobacco budworm (Heliothis virescens) was evaluated as follows. A general purpose lepidoptera artificial diet was diluted to half strength with a 5% non nutritive agar. 8 mL of this diet material was dispensed into each one ounce diet cup. One hour prior to treatment 18 to 20 eggs were dispensed onto the diet surface. The cups were then sprayed with formulated material through a flat-fan nozzle. The test was run using concentrations of 400 ppm and 50 ppm. Treated cups were air dried prior to sealing with plastic caps. The cups were held for 6 days at room temperature. Activity was then rated based on the total number of live and dead larvae, and on the size of live larvae.

[8] = test system: cotton aphid (Aphis gossypii); experiment: whole plant or invertebrate; conditions: 72 h; for mortality at 50 ppm: read-out: CA activity (percent based on aphids present in plants sprayed with solvent alone), 50 ppm, squash plants, three days after treatment; for mortality at 400 ppm: read-out: CA activity (percent based on aphids present in plants sprayed with solvent alone), 400 ppm, squash plants, three days after treatment
[9] = test system: Pyricularia oryzae (rice blast); experiment: whole plant or invertebrate; format: in vivo; conditions: Pyricularia oryzae, foliar, read-out: PYRIOR disease control, host rice; foliar spray; 400 ppm (+++: 100 ppm)
[10] = test system: Leptosphaeria nodorum (glume blotch); experiment: Foliar spray fungicide test, Leptosphaeria nodorum (glume blotch) on wheat; conditions: Parastagonospora nodorum, in Triticum aestivum, foliar, read-out: LETPNO disease control, host wheat, 400 ppm (+++: 100 ppm)
[11] = test system: Southern corn rootworm (Diabrotica undecimpuctata howardi Barber); experiment: whole plant or invertebrate; format: in vivo; conditions: 400 ppm, soil concentration of 24 ppm, 3-4 days, read-out: SCRW mortality
Description: as §1
SCRW refers to southern corn rootworm
as §2
Activity on Southern corn rootworm (Diabrotica undecimpuctata howardi Barber) was evaluated by adding one mL of test solution containing a predetermined concentration of test compound to a cup containing a kernel of corn in 16 g of sterile soil. This produces a soil concentration of 24 ppm. After 1.5 to 2 hours of drying, five 4th instar corn rootworm larvae were added to the individual cups. Mortality was measured at 3-4 days by emptying the cup onto a pan and inspecting the soil for live rootworms.

[12] = test system: aster leafhopper (Macrosteles fascifrons); experiment: whole plant or invertebrate; format: in vivo; conditions: Macrosteles fascifrons, 24 h, read-out: ALH percent mortality
Description: as §1
ALH refers to aster leafhopper
as §2
Activity against aster leafhopper (Macrosteles fascifrons) was tested as follows. The test was run using concentrations of 400 ppm and 50 ppm. One ounce plastic cups containing a cotton wick was sprayed with 0.4 mL of formulated material using a flat-fan nozzle. The excess moisture was allowed to evaporate. Then five to ten carbon dioxide anesthetized adult leafhoppers were added to each cup. The cups were capped and held at room temperature for 24 hours. Percent mortality was then determined.

Row | SMILES | pest or weed control at 50 ppm [1] | pest or weed control at 400 ppm [1] | mortality at 50 ppm [2] | mortality at 400 ppm [2] | pest or weed control at 400 µg/mL [3] | pest or weed control at 400 µg/mL [4] | pest or weed control at 400 µg/mL [5] | mortality at 50 ppm [6] | mortality at 400 ppm [6] | pest or weed control at 50 ppm [7] | pest or weed control at 400 ppm [7] | mortality at 50 ppm [8] | mortality at 400 ppm [8] | pest or weed control at 400 µg/mL [9] | pest or weed control at 400 µg/mL [10] | mortality at 24 ppm [11] | mortality at 50 ppm [12] | mortality at 400 ppm [12]
1 | Fc1cccc2c(NCCc3ccc(Oc4ccc(C(F)(F)F)cn4)cc3)ncnc12 [Compound 28, 8-Fluoro-4-(2-(4-(5-(trifluoromethyl)-2-pyridinyloxy)phenyl)ethylamino)quinazoline] | 100% | 100% | 0% | 80% | 90 to 100% | 90 to 100% | 90 to 100% | 100% | 100% | 100% | 100% | 100% | 100% | 20 to 89% | 90 to 100% | 0% | 100% | 100%
2 | O=[N+]([O-])c1ccc(Oc2ccc(CCOc3ncnc4c(F)cccc34)cc2)nc1 [Compound 23] | 100% | 100% | 0% | 40% | 20 to 89% | 90 to 100% | 90 to 100% | 0% | 50% | 100% | 100% | 0% | 90% | 20 to 89% | 20 to 89% | 0% | 60% | 80%
3 | Fc1cc(C(F)(F)F)cnc1Oc1ccc(CCOc2ncnc3cccc(F)c23)cc1 [Compound 7] | 100% | 100% | 0% | 0% | 0 to 19% | 0 to 19% | 0 to 19% | 100% | 100% | 100% | 100% | 100% | 100% | 0 to 19% | 0 to 19% | 0% | 100% | 80%
4 | COc1cc(C(Cl)(Cl)Cl)cc(Oc2ccc(CCNc3ncnc4c(F)cccc34)cc2)n1 [Compound 35] | 100% | 100% |  | 0% | 0 to 19% | 0 to 19% | 90 to 100% | 0% | 0% | 0% | 80% | 0% | 0% | 0 to 19% | 0 to 19% | 0% | 0% | 80%
5 | Fc1cc(C(F)(F)F)cnc1Oc1ccc(CCOc2ncnc3c(F)cccc23)cc1 [Compound 5] |  | 100% |  | 100% | 90 to 100% | 90 to 100% | 90 to 100% |  | 100% |  | 100% |  | 100% | 90 to 100% | 0 to 19% | 100% |  | 100%
6 | N#Cc1ccc(Oc2ccc(CCOc3ncnc4ccccc34)cc2)nc1 [Compound 21] |  | 0% |  | 0% | 20 to 89% | 90 to 100% | 90 to 100% |  | 0% |  | 0% |  | 100% | 20 to 89% | 20 to 89% | 0% |  | 60%
7 | Fc1cccc2c(OCCc3ccc(Oc4cc(C(Cl)(Cl)Cl)cc(Cl)n4)cc3)ncnc12 [Compound 34] | 0% | 100% | 0% | 0% | 0 to 19% | 0 to 19% | 20 to 89% | 0% | 0% | 0% | 80% | 0% | 0% | 20 to 89% | 0 to 19% | 0% | 40% | 20%
8 | Fc1cccc2ncnc(OCCc3ccc(Oc4nc(Cl)c(Cl)cc4Cl)cc3)c12 [Compound 43] | 0% | 0% | 0% | 0% | 0 to 19% |  | 0 to 19% | 0% | 0% | 0% | 0% | 0% | 0% | 0 to 19% | 0 to 19% | 0% | 0% | 0%

From US5326766A, “4-(2-(4-(2-pyridinyloxy)phenyl)ethoxy)quinazoline and analogues thereof” (priority 1992, dated 1994)
